What was measured:
VCaP cells = assay: Inhibitory effect on VCaP cell proliferation (Cell Titer Glo); format: cell-based; conditions: Homo sapiens, 144 h; for IC50: VCaP cells, 5% FBS and 0.1 nM R1881, 6 days; for Emax: maximum degree of VCaP cell proliferation inhibition, 6 days
Method: A tumor cell line Vcap (ATCC Cat. No. CRL-2876) was respectively cultured with DMEM (Gibco Cat. No. 11965-092) medium containing 10% FBS (Gibco Cat. No. 10099-141C). During testing, Vcap cells were replaced with a DMEM culture fluid containing 5% FBS and 0.1 nM R1881 (Sigma Cat. No. R0908). The assay method was as follows:
Vcap cells were seeded to a 384-well plate (Perkin Elmer Cat. No. 6007460) at a cell density of 1200 cells/well and a volume of 20 μL/well; after the cells were incubated overnight in a carbon dioxide incubator (Thermo), the prepared compound solutions with different concentrations were added at a volume of 5 μL/well; meanwhile, a corresponding solvent was provided as a control; after the cells were continuously incubated in the incubator for 6 days, the cell plate and the contents thereof were equilibrated to room temperature; 25 μL of a Cell Titer Glor (Promega Cat. No. G7573) reagent was added to each well; after vibration and uniform mixing, incubation in the dark was performed for 10-30 minutes, and a signal value was detected with Envision microplate reader (PerkinElmer).
A percentage inhibition rate of compound-treated wells was calculated through solvent control wells on the plate, GraphPad prism was used to fit the percentage inhibition rate data corresponding to different concentrations, and IC50 value was calculated by a 4-parameter nonlinear logistic formula.
Emax: a maximum degree of VCaP cell proliferation inhibition. IC50: a compound concentration required to achieve half the maximum degree of VCaP cell proliferation inhibition.

[1] = In-vivo pharmacokinetics in mice, oral administration; design: species or system male CD1 mice; conditions: for AUC(0-inf) / Cmax / half-life: male, CD1, mouse, oral 10 mg/kg, plasma; for F: oral 10 mg/kg vs intravenous 1 mg/Kg
Method: In this experimental example, the in-vivo pharmacokinetic evaluation was made for mice by intravenous injection and oral administration.
Experimental methods and conditions: male CD1 mice, 6 to 8 weeks old; all animals had free access to food and water; 5 min, 15 min, 30 min, 1 hr, 2 hr, 4 hr, 8 hr and 24 hr after the mice were subjected to a single intravenous injection of 1 mg/Kg of a compound to be tested (solvent 5% DMSO/15% Solutol/80% Saline) (saline in the present application all means a saline solution), or 15 min, 30 min, 1 hr, 2 hr, 4 hr, 6 hr, 8 hr and 24 hr after the mice were subjected to oral intragastric administration of 10 mg/kg (solvent 5% DMSO/10% Solutol/85% Saline), blood was collected from orbits, not less than 50 μL of each sample was collected, and heparin sodium was used for anticoagulation; the collected samples were placed on ice, and the plasma was centrifugally separated within 1 hour for testing. The drug concentration in the plasma was detected by liquid chromatography tandem mass spectrometry (LC/MS/MS), and the pharmacokinetic parameters were calculated by Phoenix WinNonlin software. Embodiment 82 in CN110612294 A was taken as a control sample 1.

[2] = In-vivo pharmacokinetics in rats, oral administration; design: species or system male SD rats; conditions: for AUC(0-inf) / Cmax / half-life: male, SD, rat, oral 10 mg/kg, plasma; for F: oral 10 mg/kg vs intravenous 1 mg/Kg
Method: In this experimental example, the in-vivo pharmacokinetic evaluation was made for rats by intravenous injection and oral administration.
Experimental methods and conditions: male SD rats, 6 to 8 weeks old; all animals had free access to food and water; 5 min, 15 min, 30 min, 1 hr, 2 hr, 4 hr, 8 hr, 24 hr and 48 hr after the rats were subjected to a single intravenous injection of 1 mg/Kg of a compound to be tested (solvent 5% DMSO/15% Solutol/80% Saline), or 15 min, 30 min, 1 hr, 2 hr, 4 hr, 6 hr, 8 hr, 24 hr and 48 hr after the rats were subjected to oral intragastric administration of 10 mg/kg (solvent 5% DMSO/10% Solutol/85% Saline), blood was collected from orbits, not less than 50 μL of each sample was collected, and heparin sodium was used for anticoagulation; the collected samples were placed on ice, and the plasma was centrifugally separated within 1 hour for testing. The drug concentration in the plasma was detected by liquid chromatography tandem mass spectrometry (LC/MS/MS), and the pharmacokinetic parameters were calculated by Phoenix WinNonlin software. Embodiment 82 in CN110612294 A was taken as a control sample 1.

[3] = In-vivo pharmacokinetics in dogs, oral administration; design: species or system male Beijing Marshall beagles; conditions: for AUC(0-inf) / Cmax / half-life: male, beagle, dog, oral 10 mg/kg, plasma; for F: oral 10 mg/kg vs intravenous 1 mg/Kg
Method: In this experimental example, the in-vivo pharmacokinetic evaluation was made for dogs by intravenous injection and oral administration.
Experimental methods and conditions: male Beijing Marshall beagles, 12 to 18 months old; the beagles were subjected to administration half an hour after feeding; 5 min, 15 min, 30 min, 1 hr, 2 hr, 4 hr, 8 hr, 24 hr, 48 hr and 72 hr after the beagles were subjected to a single intravenous injection of 1 mg/Kg of a compound to be tested (solvent 5% DMSO/10% Solutol/85% Saline), or 15 min, 30 min, 1 hr, 2 hr, 4 hr, 6 hr, 8 hr, 24 hr, 48 hr and 72 hr after the beagles were subjected to oral intragastric administration of 10 mg/kg (solvent 5% DMSO/10% Solutol/85% Saline), blood was collected from orbits, not less than 50 μL of each sample was collected, and heparin sodium was used for anticoagulation; the collected samples were placed on ice, and the plasma was centrifugally separated within 1 hour for testing. The drug concentration in the plasma was detected by liquid chromatography tandem mass spectrometry (LC/MS/MS), and the pharmacokinetic parameters were calculated by Phoenix WinNonlin software. Embodiment 82 in CN110612294 A was taken as a control sample 1.

`CC1(C)[C@H](NC(=O)c2ccc(N3CCC(CN4CCN(c5ccc6c(=O)n(C7CCC(=O)NC7=O)nc(F)c6c5)CC4)CC3)cc2)C(C)(C)[C@H]1Oc1ccc(C#N)c(Cl)c1` (some centres unmarked) [Compound 29] showed an IC50 (VCaP cells) of 56 nM, an Emax (VCaP cells) of 66% and an AUC(0-inf) [1] of 13400 ng·h/mL. It also gave a Cmax [1] of 677 ng/mL, a half-life [1] of 7.91 h and an F [1] of 24.1%. The AUC(0-inf) [2] was 6200 ng·h/mL, the Cmax [2] was 253 ng/mL and the half-life [2] was 13.4 h. It also gave an F [2] of 11.9%.
`CC1(C)[C@H](NC(=O)c2ccc(N3CCC(CN4CCN(c5ccc6c(=O)n(C7CCC(=O)NC7=O)ncc6c5)CC4)CC3)cc2)C(C)(C)[C@H]1Oc1ccc(C#N)c(Cl)c1` (some centres unmarked) [Compound 1] gave an AUC(0-inf) [1] of 18900 ng·h/mL, a Cmax [1] of 1260 ng/mL and a half-life [1] of 6.22 h. For the same compound, the F [1] was 68.8%, the AUC(0-inf) [2] was 2650 ng·h/mL and the Cmax [2] was 147 ng/mL. For the same compound, the half-life [2] was 7.62 h, the F [2] was 11.9% and the AUC(0-inf) [3] was 14100 ng·h/mL. The Cmax [3] was 482 ng/mL, the half-life [3] was 19.9 h and the F [3] was 44.1%.
`CC1(C)[C@H](NC(=O)c2ccc(N3CCC(CN4CCN(c5ccc6c(=O)n([C@H]7CCC(=O)NC7=O)ncc6c5)CC4)CC3)cc2)C(C)(C)[C@H]1Oc1ccc(C#N)c(Cl)c1` [Compound 28A] gave an IC50 (VCaP cells) of 9.7 nM, an Emax (VCaP cells) of 74% and an AUC(0-inf) [2] of 3210 ng·h/mL. It also gave a Cmax [2] of 173 ng/mL, a half-life [2] of 8.28 h and an F [2] of 5.13%. For the same compound, the AUC(0-inf) [3] was 15400 ng·h/mL, the Cmax [3] was 868 ng/mL and the half-life [3] was 34.3 h. The F [3] was 33.9%.

Reference: US12234223B2, “Phthalazinone compound, and preparation method therefor and medical use thereof” (SHANGHAI JEMINCARE PHARMACEUTICALS CO., LTD, priority 2020, dated 2025)
